Experimental data reported in US20020137929A1, “1 - (3-heterocyclylphenyl) isothiourea, -isourea, -guanidine and -amidine herbicidal agents” (Intellectual Property Department, BASF Aktiengesellschaft, priority 1998, published 2002).

How the values were obtained:
AMBEL (Ragweed, Common) [1] = assay: Postemergence herbicidal evaluation; assay type: in vivo, Ambrosia artemisifolia; conditions: postemergence
How it was run: (§1)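 Seedlings grown about two weeks were sprayed at 40 psi with compound dispersed in 50/50 acetone/water plus 0.5% TWEEN 20, at about 0.0156 to 0.500 kg/ha. Plants were kept in the greenhouse and scored 4–5 weeks later on a 0–9 visual scale against untreated controls.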

CASOB (Sicklepod) [2] = assay: Postemergence herbicidal evaluation; assay type: in vivo, Cassia obtusifolia; conditions: postemergence
How it was run: as §1

[3] = system: CHEAL (Lambsquarters, Common); assay: Postemergence herbicidal evaluation; assay type: in vivo, Chenopodium album; conditions: postemergence
How it was run: as §1

[4] = system: IPOHE (Morningglory, Ivyleaf); assay: Postemergence herbicidal evaluation; assay type: in vivo, Ipomoea hederacea; conditions: postemergence
How it was run: as §1

ECHCG (Barnyardgrass) = assay: Postemergence herbicidal evaluation; assay type: in vivo, Echinochloa crus-galli; conditions: postemergence
How it was run: as §1

[5] = system: GLXMAW (Soybean, Williams); assay: Postemergence herbicidal evaluation; assay type: in vivo, Glycine max, (L.) Merr. cv Williams; conditions: postemergence
How it was run: as §1

[6] = system: TRZAWR (Wheat, Winter, cv Riband); assay: Postemergence herbicidal evaluation; assay type: in vivo, Triticum aestivum; conditions: postemergence
How it was run: as §1

ABUTH (Velvetleaf) = assay: Preemergence herbicidal evaluation; assay type: in vivo, Abutilon theophrasti; conditions: rated 4-5 weeks after treatment
How it was run: (§2)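 Scores use a 0–9 visual scale covering stand, vigor, malformation, size and chlorosis relative to controls, rated four to five weeks after treatment. Before emergence, soil-planted seeds were sprayed with compound in aqueous acetone at roughly 0.0156–0.500 kg/ha and held in the greenhouse.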

AMBEL (Ragweed, Common) [7] = assay: Preemergence herbicidal evaluation; assay type: in vivo, Ambrosia artemisifolia; conditions: rated 4-5 weeks after treatment
How it was run: as §2

CASOB (Sicklepod) [8] = assay: Preemergence herbicidal evaluation; assay type: in vivo, Cassia obtusifolia; conditions: rated 4-5 weeks after treatment
How it was run: as §2

[9] = system: CHEAL (Lambsquarters, Common); assay: Preemergence herbicidal evaluation; assay type: in vivo, Chenopodium album; conditions: rated 4-5 weeks after treatment
How it was run: as §2

[10] = system: IPOHE (Morningglory, Ivyleaf); assay: Preemergence herbicidal evaluation; assay type: in vivo, Ipomoea hederacea; conditions: rated 4-5 weeks after treatment
How it was run: as §2

[11] = system: GLXMAW (Soybean, Williams); assay: Preemergence herbicidal evaluation; assay type: in vivo, Glycine max, (L.) Merr. cv Williams; conditions: rated 4-5 weeks after treatment
How it was run: as §2

ORYSAT (Rice, Tebonnet) = assay: Preemergence herbicidal evaluation; assay type: in vivo, Oryza sativa, (L.) Tebonnet; conditions: rated 4-5 weeks after treatment
How it was run: as §2

MOOVA (Monochoria) = assay: Preemergence weed control under flooded paddy conditions; assay type: in vivo, Monochoria vaginalis; conditions: rated 3-4 weeks after treatment
How it was run: (§3)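 Seeds or propagules sown in silt loam kept flooded 1.5-3 cm; compounds in 50/50 acetone/water pipetted into flood water at about 0.0313 to 0.500 kg/ha. Greenhouse; visual 0-9 rating versus untreated control 3-4 weeks after treatment.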

[12] = system: SAGPY (Arrowhead (Pygmaea)); assay: as above; assay type: in vivo, Sagittaria pygmaea; conditions: rated 3-4 weeks after treatment
How it was run: as §3

C=CCN1C(=O)C(CC(=O)OC(C)C)SC1=Nc1cc(-n2c(=O)cc(C(F)(F)F)n(C)c2=O)c(F)cc1Cl (stereo not drawn) [Compound 66, Isopropyl 3-allyl-2-{{2-chloro-5-[3,6-dihydro-3-methyl-2,6-dioxo-4-(trifluoromethyl)-1(2H)-pyrimidinyl]-4-fluorophenyl}imino}-4-oxo-5-thiazolidineacetate]
6.0: AMBEL herbicidal rating (AMBEL (Ragweed, Common) [1]; rate 0.0158 kg/ha) | CASOB herbicidal rating (CASOB (Sicklepod) [2]; rate 0.1250 kg/ha) | Preemergence herbicidal rating IPOHE ([10]; rate 0.2500 kg/ha)
8.5: GLXMAW herbicidal rating ([5]; rate 0.0313 kg/ha) | GLXMAW herbicidal rating ([5]; rate 0.0625 kg/ha)
1.0: Preemergence herbicidal rating AMBEL (AMBEL (Ragweed, Common) [7]; rate 0.0313 kg/ha)
8.0: TRZAWR herbicidal rating ([6]; rate 0.0625 kg/ha) | Preemergence herbicidal rating ABUTH (ABUTH (Velvetleaf); rate 0.0313 kg/ha) | Preemergence herbicidal rating ORYSAT (ORYSAT (Rice, Tebonnet); rate 0.5000 kg/ha)
3.5: TRZAWR herbicidal rating ([6]; rate 0.0158 kg/ha)
2.0: ECHCG herbicidal rating (ECHCG (Barnyardgrass); rate 0.0158 kg/ha)
5.0: CHEAL herbicidal rating ([3]; rate 0.0158 kg/ha) | Preemergence herbicidal rating ABUTH (ABUTH (Velvetleaf); rate 0.0156 kg/ha)
3.0: CASOB herbicidal rating (CASOB (Sicklepod) [2]; rate 0.0625 kg/ha) | Preemergence herbicidal rating AMBEL (AMBEL (Ragweed, Common) [7]; rate 0.0625 kg/ha) | Preemergence herbicidal rating CASOB (CASOB (Sicklepod) [8]; rate 0.5000 kg/ha) | Preemergence herbicidal rating IPOHE ([10]; rate 0.1250 kg/ha) | SAGPY herbicidal effect rating ([12]; 0.0313 kg/ha)
9.0: AMBEL herbicidal rating (AMBEL (Ragweed, Common) [1]; rate 0.0313 kg/ha) | AMBEL herbicidal rating (AMBEL (Ragweed, Common) [1]; rate 0.0625 kg/ha) | AMBEL herbicidal rating (AMBEL (Ragweed, Common) [1]; rate 0.1250 kg/ha) | CHEAL herbicidal rating ([3]; rate 0.0313 kg/ha) | CHEAL herbicidal rating ([3]; rate 0.0625 kg/ha) | CHEAL herbicidal rating ([3]; rate 0.1250 kg/ha) | IPOHE herbicidal rating ([4]; rate 0.0158 kg/ha) | IPOHE herbicidal rating ([4]; rate 0.0313 kg/ha) | IPOHE herbicidal rating ([4]; rate 0.0625 kg/ha) | IPOHE herbicidal rating ([4]; rate 0.1250 kg/ha) | ECHCG herbicidal rating (ECHCG (Barnyardgrass); rate 0.0313 kg/ha) | ECHCG herbicidal rating (ECHCG (Barnyardgrass); rate 0.0625 kg/ha) | ECHCG herbicidal rating (ECHCG (Barnyardgrass); rate 0.1250 kg/ha) | GLXMAW herbicidal rating ([5]; rate 0.1250 kg/ha) | Preemergence herbicidal rating ABUTH (ABUTH (Velvetleaf); rate 0.0625 kg/ha) | Preemergence herbicidal rating ABUTH (ABUTH (Velvetleaf); rate 0.1250 kg/ha) | Preemergence herbicidal rating ABUTH (ABUTH (Velvetleaf); rate 0.2500 kg/ha) | Preemergence herbicidal rating ABUTH (ABUTH (Velvetleaf); rate 0.5000 kg/ha) | Preemergence herbicidal rating AMBEL (AMBEL (Ragweed, Common) [7]; rate 0.1250 kg/ha) | Preemergence herbicidal rating AMBEL (AMBEL (Ragweed, Common) [7]; rate 0.2500 kg/ha) | Preemergence herbicidal rating AMBEL (AMBEL (Ragweed, Common) [7]; rate 0.5000 kg/ha) | Preemergence herbicidal rating CHEAL ([9]; rate 0.0313 kg/ha) | Preemergence herbicidal rating CHEAL ([9]; rate 0.0625 kg/ha) | Preemergence herbicidal rating CHEAL ([9]; rate 0.1250 kg/ha) | Preemergence herbicidal rating CHEAL ([9]; rate 0.2500 kg/ha) | Preemergence herbicidal rating CHEAL ([9]; rate 0.5000 kg/ha) | Preemergence herbicidal rating IPOHE ([10]; rate 0.5000 kg/ha) | Preemergence herbicidal rating GLXMAW ([11]; rate 0.5000 kg/ha) | MOOVA herbicidal effect rating (MOOVA (Monochoria); 0.0313 kg/ha) | MOOVA herbicidal effect rating (MOOVA (Monochoria); 0.0625 kg/ha) | MOOVA herbicidal effect rating (MOOVA (Monochoria); 0.1250 kg/ha) | MOOVA herbicidal effect rating (MOOVA (Monochoria); 0.2500 kg/ha)
4.0: Preemergence herbicidal rating CHEAL ([9]; rate 0.0156 kg/ha) | SAGPY herbicidal effect rating ([12]; 0.0625 kg/ha) | SAGPY herbicidal effect rating ([12]; 0.1250 kg/ha) | SAGPY herbicidal effect rating ([12]; 0.2500 kg/ha)
2.5: Preemergence herbicidal rating ORYSAT (ORYSAT (Rice, Tebonnet); rate 0.2500 kg/ha)
7.0: GLXMAW herbicidal rating ([5]; rate 0.0158 kg/ha) | TRZAWR herbicidal rating ([6]; rate 0.0313 kg/ha)
4.5: Preemergence herbicidal rating GLXMAW ([11]; rate 0.2500 kg/ha)
7.5: TRZAWR herbicidal rating ([6]; rate 0.1250 kg/ha)
0.0: CASOB herbicidal rating (CASOB (Sicklepod) [2]; rate 0.0158 kg/ha) | CASOB herbicidal rating (CASOB (Sicklepod) [2]; rate 0.0313 kg/ha) | Preemergence herbicidal rating CASOB (CASOB (Sicklepod) [8]; rate 0.0156 kg/ha) | Preemergence herbicidal rating CASOB (CASOB (Sicklepod) [8]; rate 0.0313 kg/ha) | Preemergence herbicidal rating CASOB (CASOB (Sicklepod) [8]; rate 0.0625 kg/ha) | Preemergence herbicidal rating IPOHE ([10]; rate 0.0156 kg/ha) | Preemergence herbicidal rating IPOHE ([10]; rate 0.0313 kg/ha) | Preemergence herbicidal rating GLXMAW ([11]; rate 0.0156 kg/ha) | Preemergence herbicidal rating GLXMAW ([11]; rate 0.0313 kg/ha) | Preemergence herbicidal rating ORYSAT (ORYSAT (Rice, Tebonnet); rate 0.0156 kg/ha) | Preemergence herbicidal rating ORYSAT (ORYSAT (Rice, Tebonnet); rate 0.0313 kg/ha)
0.5: Preemergence herbicidal rating AMBEL (AMBEL (Ragweed, Common) [7]; rate 0.0156 kg/ha) | Preemergence herbicidal rating CASOB (CASOB (Sicklepod) [8]; rate 0.1250 kg/ha) | Preemergence herbicidal rating CASOB (CASOB (Sicklepod) [8]; rate 0.2500 kg/ha) | Preemergence herbicidal rating IPOHE ([10]; rate 0.0625 kg/ha) | Preemergence herbicidal rating GLXMAW ([11]; rate 0.0625 kg/ha) | Preemergence herbicidal rating GLXMAW ([11]; rate 0.1250 kg/ha) | Preemergence herbicidal rating ORYSAT (ORYSAT (Rice, Tebonnet); rate 0.0625 kg/ha) | Preemergence herbicidal rating ORYSAT (ORYSAT (Rice, Tebonnet); rate 0.1250 kg/ha)
